Results from patent publication US20240199558A1, “2,4,6-TRISUBSTITUTED 1,3,5-TRIAZINES AS MODULATORS OF CX3CR1” (ASTRAZENECA AB, priority 2022, published 2024).

Molecular target: CX3CR1 (Homo sapiens (Human), UniProt P49238)
Assay: hCX3CR1 [3H]-AZD8797 competitive binding assay (filter)
Settings: CHO-hCX3CR1 membranes, 2 nM [3H]-AZD8797
Method in brief: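 Filtration radioligand displacement assay: competitor titrations compete with 2 nM [3H]-AZD8797 for membranes from CHO cells expressing hCX3CR1 (9 μg/well). Incubation was 2 h at room temperature in HEPES pH 7.4 with MgCl2, CaCl2, 0.5% BSA and 1% DMSO. Filters were washed with ice-cold high-salt (500 mM NaCl) buffer, and retained radioactivity was scintillation-counted.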

CX3CR1, sequence (P49238 whole entry): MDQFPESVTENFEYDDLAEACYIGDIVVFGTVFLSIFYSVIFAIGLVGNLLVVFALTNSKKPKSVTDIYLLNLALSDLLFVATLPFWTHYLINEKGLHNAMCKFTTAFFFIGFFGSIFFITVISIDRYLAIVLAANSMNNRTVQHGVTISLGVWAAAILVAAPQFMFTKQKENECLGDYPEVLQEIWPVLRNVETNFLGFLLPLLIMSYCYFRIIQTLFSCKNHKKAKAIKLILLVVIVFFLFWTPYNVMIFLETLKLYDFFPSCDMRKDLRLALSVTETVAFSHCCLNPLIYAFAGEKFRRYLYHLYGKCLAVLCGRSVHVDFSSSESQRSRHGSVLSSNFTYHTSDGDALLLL

Point of comparison: `CC(C)C[C@H](CO)Nc1nc(C[C@H](C)c2cc(F)c(Cl)c(F)c2)nc(NS(C)(=O)=O)n1` (single isomer, unassigned) [Example 32, N-(4-((S*)-2-(4-Chloro-3,5-difluorophenyl)propyl)-6-(((R)-1-hydroxy-4-methylpentan-2-yl)amino)-1,3,5-triazin-2-yl)methanesulfonamide], IC50 7560 nM. Against it:
- CC(C)C[C@H](CO)Nc1nc(CC(C)c2cccc(N)c2)nc(NS(C)(=O)=O)n1 (stereo partly drawn) [Example 121, N-(4-(2-(3-Aminophenyl)propyl)-6-(((R)-1-hydroxy-4-methylpentan-2-yl)amino)-1,3,5-triazin-2-yl)methanesulfonamide] — 360-fold lower, 21 nM
- CC(C)C[C@H](CO)Nc1nc(CC(C)c2cccc(-c3ccccc3)c2)nc(NS(C)(=O)=O)n1 (stereo partly shown) [Example 157] — 1.7-fold lower, 4350 nM
- CC(C)C[C@H](CO)Nc1nc(CC(C)c2ccc(N3CCOCC3=O)cc2)nc(NS(C)(=O)=O)n1 (stereo partly drawn) [Example 118, N-(4-(((R)-1-Hydroxy-4-methylpentan-2-yl)amino)-6-(2-(4-(3-oxomorpholino)phenyl)propyl)-1,3,5-triazin-2-yl)methanesulfonamide] — 50-fold lower, 150 nM
- CC(C)C[C@H](CO)Nc1nc(CC(C)c2ccc(C3COC3)cc2)nc(NS(C)(=O)=O)n1 (stereo partly drawn) [Example 57, N-(4-(((R)-1-Hydroxy-4-methylpentan-2-yl)amino)-6-(2-(4-(oxetan-3-yl)phenyl)propyl)-1,3,5-triazin-2-yl)methanesulfonamide] — 68-fold lower, 111 nM
- Cc1c2ccc(C(C)Cc3nc(N[C@@H](CO)CC(C)C)nc(NS(C)(=O)=O)n3)cc2nn1C (stereo partly drawn) [Example 106, N-(4-(2-(2,3-Dimethyl-2H-indazol-6-yl)propyl)-6-(((R)-1-hydroxy-4-methylpentan-2-yl)amino)-1,3,5-triazin-2-yl)methanesulfonamide] — 320-fold lower, 24 nM
- CC(C)C[C@H](CO)Nc1nc(CC(C)c2cccc(CN3OCCC3=O)c2)nc(NS(C)(=O)=O)n1 (stereo partly drawn) [Example 101, N-(4-(((R)-1-Hydroxy-4-methylpentan-2-yl)amino)-6-(2-(3-((3-oxoisoxazolidin-2-yl)methyl)phenyl)propyl)-1,3,5-triazin-2-yl)methanesulfonamide] — 14-fold lower, 542 nM
- Cc1ccc(C(C)Cc2nc(N[C@@H](CO)CC(C)C)nc(NS(C)(=O)=O)n2)cc1N (stereo partly drawn) [Example 114, N-(4-(2-(3-Amino-4-methylphenyl)propyl)-6-(((R)-1-hydroxy-4-methylpentan-2-yl)amino)-1,3,5-triazin-2-yl)methanesulfonamide] — 170-fold lower, 45 nM
- CC(C)C[C@H](CO)Nc1nc(CCC(F)(F)c2ccc(Cl)cc2)nc(NS(C)(=O)=O)n1 [Example 153, (R)—N-(4-(3-(4-Chlorophenyl)-3,3-difluoropropyl)-6-((1-hydroxy-4-methylpentan-2-yl)amino)-1,3,5-triazin-2-yl)methanesulfonamide] — higher, > 10000 nM
- CC(C)C[C@H](CO)Nc1nc(C[C@H](C)c2cc(F)c(Cl)cc2F)nc(NS(C)(=O)=O)n1 (single isomer, unassigned) [Example 37, N-(4-((S*)-2-(4-Chloro-2,5-difluorophenyl)propyl)-6-(((R)-1-hydroxy-4-methylpentan-2-yl)amino)-1,3,5-triazin-2-yl)methanesulfonamide] — 3.9-fold lower, 1930 nM
- CCOc1ccc(C(C)Cc2nc(N[C@@H](CO)CC(C)C)nc(NS(C)(=O)=O)n2)cc1 (stereo partly drawn) [Example 123, N-(4-(2-(4-Ethoxyphenyl)propyl)-6-(((R)-1-hydroxy-4-methylpentan-2-yl)amino)-1,3,5-triazin-2-yl)methanesulfonamide] — 22-fold lower, 339 nM
- CC(C)C[C@H](CO)Nc1nc(C[C@@H](C)c2c(F)cc(Cl)cc2F)nc(NS(C)(=O)=O)n1 (single isomer, unassigned) [Example 44, N-(4-((R*)-2-(4-Chloro-2,6-difluorophenyl)propyl)-6-(((R)-1-hydroxy-4-methylpentan-2-yl)amino)-1,3,5-triazin-2-yl)methanesulfonamide] — 44-fold lower, 173 nM
- CC(C)C[C@H](CO)Nc1nc(CC(C)c2cccc(Cl)c2O)nc(NS(C)(=O)=O)n1 (stereo partly drawn) [Example 137, N-(4-(2-(3-Chloro-2-hydroxyphenyl)propyl)-6-(((R)-1-hydroxy-4-methylpentan-2-yl)amino)-1,3,5-triazin-2-yl)methanesulfonamide] — 24-fold lower, 321 nM
- CC(C)C[C@H](CO)Nc1nc(CC(C)c2ccc(C(F)(F)F)cc2)nc(NS(C)(=O)=O)n1 (stereo partly drawn) [Example 74, N-(4-(((R)-1-Hydroxy-4-methylpentan-2-yl)amino)-6-(2-(4-(trifluoromethyl)phenyl)propyl)-1,3,5-triazin-2-yl)methanesulfonamide] — 8.2-fold lower, 925 nM
- COc1ccc(C(C)Cc2nc(N[C@@H](CO)CC(C)C)nc(NS(C)(=O)=O)n2)cc1 (stereo partly drawn) [Example 113, N-(4-(((R)-1-Hydroxy-4-methylpentan-2-yl)amino)-6-(2-(4-methoxyphenyl)propyl)-1,3,5-triazin-2-yl)methanesulfonamide] — 41-fold lower, 184 nM
- CC(C)C[C@H](CO)Nc1nc(CC(C)c2ccc(F)cc2O)nc(NS(C)(=O)=O)n1 (stereo partly drawn) [Example 142, N-(4-(2-(4-Fluoro-2-hydroxyphenyl)propyl)-6-(((R)-1-hydroxy-4-methylpentan-2-yl)amino)-1,3,5-triazin-2-yl)methanesulfonamide] — 69-fold lower, 110 nM
- CC(C)C[C@H](CO)Nc1nc(C[C@@H](C)c2cc(F)ccc2F)nc(NS(C)(=O)=O)n1 (single isomer, unassigned) [Example 24, N-(4-((R*)-2-(2,5-Difluorophenyl)propyl)-6-(((R)-1-hydroxy-4-methylpentan-2-yl)amino)-1,3,5-triazin-2-yl)methanesulfonamide] — 97-fold lower, 78 nM
- CC(C)C[C@H](CO)Nc1nc(C[C@@H](C)c2cc(F)c(Cl)cc2F)nc(NS(C)(=O)=O)n1 (single isomer, unassigned) [Example 38, N-(4-((R*)-2-(4-Chloro-2,5-difluorophenyl)propyl)-6-(((R)-1-hydroxy-4-methylpentan-2-yl)amino)-1,3,5-triazin-2-yl)methanesulfonamide] — 11-fold lower, 685 nM
- CC(C)C[C@H](CO)Nc1nc(CC(C)c2ccc3[nH]ccc3c2)nc(NS(C)(=O)=O)n1 (stereo partly drawn) [Example 60, N-(4-(2-(1H-Indol-5-yl)propyl)-6-(((R)-1-hydroxy-4-methylpentan-2-yl)amino)-1,3,5-triazin-2-yl)methanesulfonamide] — 74-fold lower, 102 nM
- CC(C)C[C@H](CO)Nc1nc(C[C@H](C)c2c(F)cc(Cl)cc2F)nc(NS(C)(=O)=O)n1 (single isomer, unassigned) [Example 43, N-(4-((S*)-2-(4-Chloro-2,6-difluorophenyl)propyl)-6-(((R)-1-hydroxy-4-methylpentan-2-yl)amino)-1,3,5-triazin-2-yl)methanesulfonamide] — within 1.5-fold, 9110 nM
- CC(C)C[C@H](CO)Nc1nc(CC(C)c2ccc(OC(F)F)nc2)nc(NS(C)(=O)=O)n1 (stereo partly drawn) [Example 127, N-(4-(2-(6-(Difluoromethoxy)pyridin-3-yl)propyl)-6-(((R)-1-hydroxy-4-methylpentan-2-yl)amino)-1,3,5-triazin-2-yl)methanesulfonamide] — 21-fold lower, 354 nM
- CC(C)C[C@H](CO)Nc1nc(C[C@H](C)c2cc(Cl)ccc2F)nc(NS(C)(=O)=O)n1 (single isomer, unassigned) [Example 29, N-(4-((S*)-2-(5-Chloro-2-fluorophenyl)propyl)-6-(((R)-1-hydroxy-4-methylpentan-2-yl)amino)-1,3,5-triazin-2-yl)methanesulfonamide] — 9.5-fold lower, 794 nM
